Data on 58 compounds can be found in EP4671246A1, “6-ALKOXYPYRAZOLOPYRIMIDINE COMPOUND AND PHARMACEUTICAL USE THEREOF” (Japan Tobacco Inc., priority 2023, dated 2024).

This experiment deals with T1, NLRP3 inflammasome (Homo sapiens, UniProt Q96P20).
T1 construct: host or cells: THP1-Null cells (PMA-differentiated, LPS-primed, nigericin-stimulated)
T1 sequence (Q96P20 whole entry): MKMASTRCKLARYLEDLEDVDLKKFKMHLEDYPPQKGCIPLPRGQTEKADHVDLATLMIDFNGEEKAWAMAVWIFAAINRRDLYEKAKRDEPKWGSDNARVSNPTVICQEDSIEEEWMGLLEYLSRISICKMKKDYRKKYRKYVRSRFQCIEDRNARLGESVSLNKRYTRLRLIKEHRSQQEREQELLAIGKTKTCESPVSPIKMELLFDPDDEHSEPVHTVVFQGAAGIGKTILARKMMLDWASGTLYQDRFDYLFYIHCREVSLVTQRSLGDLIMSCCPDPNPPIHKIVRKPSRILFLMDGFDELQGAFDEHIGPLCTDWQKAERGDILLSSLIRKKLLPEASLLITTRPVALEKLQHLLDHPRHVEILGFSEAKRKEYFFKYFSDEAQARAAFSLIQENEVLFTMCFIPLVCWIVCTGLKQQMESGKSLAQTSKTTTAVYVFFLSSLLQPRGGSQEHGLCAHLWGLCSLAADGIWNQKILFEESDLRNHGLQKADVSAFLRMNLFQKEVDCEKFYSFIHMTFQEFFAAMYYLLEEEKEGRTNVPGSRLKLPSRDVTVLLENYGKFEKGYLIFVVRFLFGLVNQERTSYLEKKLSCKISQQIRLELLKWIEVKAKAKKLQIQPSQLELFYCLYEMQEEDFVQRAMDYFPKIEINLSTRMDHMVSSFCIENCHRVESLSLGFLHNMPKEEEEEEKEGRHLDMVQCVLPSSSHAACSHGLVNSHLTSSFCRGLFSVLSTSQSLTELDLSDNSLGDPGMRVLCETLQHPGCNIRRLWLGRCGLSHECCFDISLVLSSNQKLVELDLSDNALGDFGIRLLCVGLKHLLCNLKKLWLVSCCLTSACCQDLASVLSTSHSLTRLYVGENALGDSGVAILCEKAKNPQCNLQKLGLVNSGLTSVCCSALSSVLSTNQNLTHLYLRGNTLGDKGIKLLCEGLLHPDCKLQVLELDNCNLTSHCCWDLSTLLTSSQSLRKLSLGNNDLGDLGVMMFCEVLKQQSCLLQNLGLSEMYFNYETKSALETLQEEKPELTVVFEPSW
Nature of the experiment: Evaluation of NLRP3 inflammasome inhibitory activity (inhibition of IL-1β production in THP1-Null cells). In kind it is cell-based. To be noted: 0.5 µmol/L PMA overnight, 1 µg/mL Lipopolysaccharides 3 hours, Nigericin 7.5 µmol/L 1.5 hours, AlphaLISA Human IL-1β. On the procedure: The NLRP3 inflammasome inhibitory activity of test compounds were evaluated on the basis of the inhibitory activity of the IL-1β production in THP1-Null cells (Product Number: thp-null, InvivoGen). Cells were maintained for culture in RPMI-1640 media containing 10% (v/v) fetal bovine serum, 25 mmol/L HEPES, 100 U/mL penicillin, 100 µg/mL streptomycin, 100 µg/mL normocin, and 200 µg/mL hygromycin B (set at 37°C, 5% CO2/95% air) .
Cells were suspended with media for assay containing 0.5 µmol/L PMA (RPMI-1640 media containing 10% (v/v) fetal bovine serum, 100 U/mL penicillin, and 100 µg/mL streptomycin), and the suspended cells were seeded on Corning (registered trademark) 384-well Flat Clear Bottom Black Polystyrene TC-treated Microplates (25,000 cells/25 µL/well), followed by incubation (set at 37°C, 5% CO2/95% air) overnight. The supernatant of the culture was removed, and thereto was added media for assay (25 µL/well) containing 1 µg/mL Lipopolysaccharides (Product Number: L2654, Sigma-Aldrich (registered trademark)). Then, the culture was further incubated for 3 hours (set at 37°C, 5% CO2/95% air) . The supernatant of the culture was removed. Then, a vehicle solution prepared from Opti-MEM (trademark) medium (Product Number: 31985-070, Invitrogen) was added to blank-setting wells and control-setting wells (20 µL/well), followed by incubation for 15 minutes (set at 37°C, 5% CO2/95% air). A solution containing a test compound (20 µL/well) was added to test compound-setting wells. Further, Opti-MEM (trademark) medium containing Nigericin (Product Number: N7143, Sigma-Aldrich (registered trademark)) was added to the control-setting wells and test compound-setting wells (5 µL/well), followed by incubation for 1.5 hours (set at 37°C, 5% CO2/95% air). The final concentration of Nigericin was adjusted to be 7.5 µmol/L. 5 µL/well of Opti-MEM (trademark) medium was added to the blank-setting wells. The supernatant of the culture was cryonically stored (set at -20°C) until measurement of IL-1β.
The amount of IL-1β in the culture supernatant was quantitated with AlphaLISA (registered trademark) Human IL-1β Detection Kit (Product Number: AL220C, Perkin Elmer). Fluorescence intensity was measured with a microplate reader EnSpier (Model number: 2300-00J, Perkin Elmer) or EnSight (Model number: HH34000000, Perkin Elmer) according to procedure manuals attached thereto. Inhibition rates of the test compound-setting wells were calculated on the basis of 100% for the blank-setting wells and 0% for the control-setting wells. IC50 values (i.e., 50% inhibitory concentrations) of the test compounds were calculated by logistic regression analysis.
(Alpha assays give light when donor and acceptor beads are brought close together.)
Turning to `Cc1cc(C2CC2)cc(C)c1-n1cc2c(=O)[nH]c(OCCCS(=O)(=O)C(C)C)nc2n1` [Example 62], the half-maximal inhibitory concentration (IC50) was determined as 4 nM. Then `COc1nc2nn(-c3ccc(OC(F)F)cc3C(F)(F)F)cc2c(=O)[nH]1` [Example 63], with 80 nM.

`Cc1cc(Br)cc(C)c1-n1cc2c(=O)[nH]c(OCCCS(=O)(=O)C(C)(C)C)nc2n1` [Example 64] yielded an IC50 of 7 nM.

Compound `COc1nc2nn(-c3c(C)cc(C(F)F)cc3C)cc2c(=O)[nH]1` [Example 65] displayed an IC50 of 140 nM. Compared with the last compound, the IC50 is about 20-fold higher.

`COc1nc2nn(-c3c(C)cc(OC(F)F)cc3F)cc2c(=O)[nH]1` [Example 66]: the IC50 is 78 nM.

In turn, `Cc1cc(Br)cc(C)c1-n1cc2c(=O)[nH]c(OCC(F)F)nc2n1` [Example 67] returned an IC50 of 43 nM. Then `Cc1cc(C2CC2)cc(C)c1-n1cc2c(=O)[nH]c(OCC(F)F)nc2n1` [Example 68], with 25 nM. Consider `COc1nc2nn(-c3ccc(Br)cc3C)cc2c(=O)[nH]1` [Example 69], for which the midpoint of inhibition, the IC50, lay at 57 nM.

As to `CCc1cc(Br)ccc1-n1cc2c(=O)[nH]c(OC)nc2n1` [Example 70], the half-maximal inhibitory concentration (IC50) stood at 25 nM. Then `COc1nc2nn(-c3c(C)cc(C(C)(F)F)cc3C)cc2c(=O)[nH]1` [Example 71], with 42 nM. Then `Cc1cc(Br)cc(C)c1-n1cc2c(=O)[nH]c(OCCC3CCOCC3)nc2n1` [Example 72], with 27 nM.

On to `Cc1cc(C2CC2)cc(C)c1-n1cc2c(=O)[nH]c(OCCC3CCOCC3)nc2n1` [Example 73], for which half-maximal inhibition (IC50) required 18 nM. Compared with the last compound, the IC50 is about 1.5-fold lower. As to `Cc1cc(C2CC2)cc(C)c1-n1cc2c(=O)[nH]c(OCCCS(=O)(=O)C(C)(C)C)nc2n1` [Example 74], the IC50 amounted to 3 nM. Compared with the last compound, the IC50 is about 6-fold lower. Then `COc1nc2nn(-c3c(F)cc(F)cc3Cl)cc2c(=O)[nH]1` [Example 75], with 1300 nM; and `COc1cc(F)c(-n2cc3c(=O)[nH]c(OC)nc3n2)c(Cl)c1` [Example 76], with 74 nM. With `COc1nc2nn(-c3c(Cl)cc(F)cc3OC)cc2c(=O)[nH]1` [Example 77], the midpoint of inhibition, the IC50, lay at 2400 nM.

On to `COc1nc2nn(-c3c(C)cc(OC(F)F)cc3Cl)cc2c(=O)[nH]1` [Example 78], for which the IC50 came to 40 nM. This IC50 lies about 60-fold lower than the previous one.

As to `COc1nc2nn(-c3c(C)cc(C4CC4)cc3C)c(I)c2c(=O)[nH]1` [Example 79], 8 nM corresponded to half-maximal inhibition (IC50).

`CCc1cc(C2CC2)ccc1-n1cc2c(=O)[nH]c(OC)nc2n1` [Example 80]: the IC50 came out at 17 nM.

The compound `COc1nc2nn(-c3ccc(Br)cc3C(C)C)cc2c(=O)[nH]1` [Example 81] gave an IC50 of 58 nM. As to `COc1nc2nn(-c3cc4c(cc3Cl)OCC4)cc2c(=O)[nH]1` [Example 82], it took 75 nM to reach half-maximal inhibition (IC50). Then `COc1nc2nn(-c3c(C)cc(C4CC4)cc3Cl)cc2c(=O)[nH]1` [Example 83], with 8 nM. Then `COc1nc2nn(-c3c(C)cc(C(C)(F)F)cc3Cl)cc2c(=O)[nH]1` [Example 84], with 45 nM.

The compound `CCc1cc(Br)cc(C)c1-n1cc2c(=O)[nH]c(OC)nc2n1` [Example 85] displayed an IC50 of 12 nM. Then `CCc1cc(OC)cc(C)c1-n1cc2c(=O)[nH]c(OC)nc2n1` [Example 86], with 49 nM; and `COCc1cc(C)c(-n2cc3c(=O)[nH]c(OC)nc3n2)c(C)c1` [Example 87], with 1200 nM. Then `COCc1cc(Br)cc(C)c1-n1cc2c(=O)[nH]c(OC)nc2n1` [Example 88], with 44 nM. Then `CCc1cc(C(C)(F)F)cc(C)c1-n1cc2c(=O)[nH]c(OC)nc2n1` [Example 89], with 24 nM; and `COc1nc2nn(-c3c(C)cc(F)cc3C)cc2c(=O)[nH]1` [Example 90], with 740 nM. For the compound `CCc1c2c(=O)[nH]c(OC)nc2nn1-c1c(C)cc(OC)cc1C` [Example 91], inhibition was half-maximal at 140 nM (IC50). Then `COCc1cc(C2CC2)cc(C)c1-n1cc2c(=O)[nH]c(OC)nc2n1` [Example 92], with 21 nM; and `COCc1cc(OC)cc(C)c1-n1cc2c(=O)[nH]c(OC)nc2n1` [Example 93], with 230 nM; and `CCOc1cc(C)c(-n2cc3c(=O)[nH]c(OC)nc3n2)c(C)c1` [Example 94], with 200 nM.

In turn, `COc1cc(C)c(-n2nc3nc(OC)[nH]c(=O)c3c2C2CC2)c(C)c1` [Example 95] came in with an IC50 of 68 nM. Then `COc1nc2nn(-c3c(C)cc(Br)c(OC)c3C)cc2c(=O)[nH]1` [Example 96], with 430 nM; and `COc1nc2nn(-c3cc(C)ccc3C(F)(F)F)cc2c(=O)[nH]1` [Example 97], with 1200 nM. `COc1nc2nn(-c3c(C(F)(F)F)nn(C(C)C)c3C)cc2c(=O)[nH]1` [Example 98]: the IC50 turned out to be 500 nM. Compared with the last compound, the IC50 is about 2.4-fold lower. Then `Cc1cc(Br)cc(C)c1-n1cc2c(=O)[nH]c(OCCCO)nc2n1` [Example 99], with 12 nM; and `COc1nc2nn(-c3c(C)cc(OC)c(Br)c3C)cc2c(=O)[nH]1` [Example 100], with 690 nM; and `COc1nc2nn(-c3c(C)cc(Br)cc3C#N)cc2c(=O)[nH]1` [Example 101], with 2400 nM.

`Cc1c(-n2cc3c(=O)[nH]c(OCC4CC4)nc3n2)c(C(F)(F)F)nn1C(C)C` [Example 102] registered an IC50 of 670 nM.

In turn, `COc1nc2nn(-c3cc4c(cc3Cl)OCCC4)cc2c(=O)[nH]1` [Example 103] gave an IC50 of 110 nM. For the compound `COc1nc2nn(-c3c(C)cc(Br)cc3OC(F)F)cc2c(=O)[nH]1` [Example 104], the IC50 stood at 13 nM. Compared with the last compound, the IC50 is about 8.5-fold lower. Then `COc1nc2nn(-c3c(C)cc(C4CC4)cc3OC(F)F)cc2c(=O)[nH]1` [Example 105], with 14 nM.

With `Cc1cc(C2CC2)cc(C)c1-n1cc2c(=O)[nH]c(OCC(F)(F)CO)nc2n1` [Example 106], the IC50 came to 29 nM. `COCCOc1nc2nn(-c3c(C)cc(Br)cc3C)cc2c(=O)[nH]1` [Example 107] had an IC50 of 23 nM.

The compound `Cc1cc(Br)cc(C)c1-n1cc2c(=O)[nH]c(OCCC(C)(C)C#N)nc2n1` [Example 109] registered an IC50 of 67 nM. Then `COCc1cc(OC(F)F)cc(C)c1-n1cc2c(=O)[nH]c(OC)nc2n1` [Example 110], with 210 nM; and `Cc1cc(Br)cc(C)c1-n1cc2c(=O)[nH]c(OC[C@H]3CCOC3)nc2n1` [Example 111], with 50 nM; and `Cc1cc(Br)cc(C)c1-n1cc2c(=O)[nH]c(OC[C@@H]3CCOC3)nc2n1` [Example 112], with 38 nM.

As for `Cc1cc(Br)cc(C)c1-n1cc2c(=O)[nH]c(OCCCCO)nc2n1` [Example 113], the IC50 is 14 nM.

As for `Cc1cc(Br)cc(C)c1-n1cc2c(=O)[nH]c(OCCCC#N)nc2n1` [Example 114], the midpoint of inhibition, the IC50, lay at 19 nM. Then `COc1nc2nn(-c3c(C)cc(Br)cc3CF)cc2c(=O)[nH]1` [Example 115], with 13 nM; and `Cc1cc(C2CC2)cc(C)c1-n1cc2c(=O)[nH]c(OCCCO)nc2n1` [Example 116], with 11 nM; and `Cc1cc(C2CC2)cc(C)c1-n1cc2c(=O)[nH]c(OCCC(C)(C)C#N)nc2n1` [Example 117], with 31 nM.

Take `COc1nc2nn(-c3c(C)cc(C(C)(C)F)cc3C)cc2c(=O)[nH]1` [Example 118]: half-maximal inhibition (IC50) was put at 73 nM. Then `COc1nc2nn(-c3c(C)cc(C4CC4)cc3C)c(C#N)c2c(=O)[nH]1` [Example 119], with 23 nM. Then `Cc1cc(Br)cc(C)c1-n1cc2c(=O)[nH]c(OC3COC3)nc2n1` [Example 121], with 2400 nM.

Broadly, the IC50 is the concentration that gives 50% inhibition.
